Results taken from patent US20100179188A1, “NITROXIDE RADICAL AS TREATMENT FOR NEURODEGENERATION” (Office of Technology Transfer, NIH, priority 2007, published 2010).

Experiments:
[1] = tested on: ferritin; experiment: Western blot of ferritin in cerebellar lysates; format: in vivo; conditions: cerebellar lysates of IRP2−/− mice, Tempo1 diet vs control diet
Method: (§1) Diet: The mice were weaned 3-4 weeks after their birth. Immediately after weaning, mice were maintained on either a Tempo1-supplemented or control diet. In the Tempo1-supplemented diet, powdered Tempo1 was uniformly mixed with bacon-flavored mouse chow by a “cold press” technique (Bio-Serv, Frenchtown, N.J., USA) at a concentration of 10 mg/g of food. Bacon-flavored chow without Tempo1 was used as the control diet.
Tissue and lysate preparation: Animals were euthanized and tissues were frozen in liquid nitrogen immediately after harvesting, and stored at −80° C. under argon. Experiments were performed on tissues that were pulverized in liquid N2-cooled mortars in an anaerobic chamber, and then lysed in lysis buffer that was deaerated by cyclic freezethaw and air-removal with argon. Nuclei and debris were removed by centrifugation. Preparations of lysates for assays of IRP1 activity, western blotting, carbonyl assay and protein analysis were performed anaerobically. […]
Cerebellar lysates from wild-type and IRP2−/− mice that were maintained on a control diet or on a Tempo1-supplemented diet were analyzed for ferritin and actin expression. […] Quantification was performed with the NIH Image program. Error bars represent the standard deviation calculated from the results of three different sets of animals. […]

[2] = target: T1, mitochondrial aconitase (Mus musculus, UniProt Q99KI0); experiment: In-gel aconitase assay in mouse embryonic fibroblasts, mitochondrial aconitase; format: cell-based
T1 construct: endogenous in cells; host or cells: mouse embryonic fibroblasts
T1 sequence (Q99KI0 28-780): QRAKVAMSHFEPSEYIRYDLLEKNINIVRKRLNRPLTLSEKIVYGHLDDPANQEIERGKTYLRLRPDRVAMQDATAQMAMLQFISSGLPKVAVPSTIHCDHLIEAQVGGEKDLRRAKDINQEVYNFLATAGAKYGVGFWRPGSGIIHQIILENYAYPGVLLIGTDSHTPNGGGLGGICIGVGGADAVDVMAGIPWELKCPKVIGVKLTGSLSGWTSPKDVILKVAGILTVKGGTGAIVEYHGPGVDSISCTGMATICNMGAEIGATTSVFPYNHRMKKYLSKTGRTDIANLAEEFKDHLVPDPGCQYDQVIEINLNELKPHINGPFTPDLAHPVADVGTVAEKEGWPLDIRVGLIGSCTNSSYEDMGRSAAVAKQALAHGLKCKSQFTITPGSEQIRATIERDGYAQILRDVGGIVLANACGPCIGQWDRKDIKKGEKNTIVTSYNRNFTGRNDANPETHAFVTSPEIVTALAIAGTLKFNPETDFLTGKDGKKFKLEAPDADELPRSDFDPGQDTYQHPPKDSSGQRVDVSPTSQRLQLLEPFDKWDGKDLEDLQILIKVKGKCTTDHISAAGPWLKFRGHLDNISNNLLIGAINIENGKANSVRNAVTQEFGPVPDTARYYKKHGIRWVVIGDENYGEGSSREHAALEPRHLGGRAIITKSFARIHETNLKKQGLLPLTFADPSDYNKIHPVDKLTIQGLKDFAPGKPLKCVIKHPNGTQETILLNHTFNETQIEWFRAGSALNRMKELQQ
Method: Cells: Embryonic fibroblasts of 13-day old embryos were isolated from wild type, IRP1−/− mice and IRP2−/− mice as described in LaVaute et al. supra. Myc-tagged HEK 293 Tet-on cell line, in which IRP2 expression was inducible, was prepared and cultured as described Bourdon et al., Blood Cells Mol Dis, 31, 247-255 (2003). Erythroblasts were harvested from bone marrow and purified as described in Cooperman et al., Blood, 106, 1084-1091 (2005).
Aconitase assay: Aconitase activity gels for human lysates were performed as described in Tong et al., infra, and aconitase activity gels for mouse lysate were performed with the following modifications. […] Spectral aconitase activity was measured by following the method of Fillebeen et al., infra, using cis-aconitate as the substrate.
To determine whether the effect of Tempo1 on IRP1 activity was kinetically consistent with oxidative disassembly of the iron sulfur cluster, the effect of Tempo1 on aconitase activity was compared to that of the iron chelator, deferiprone (DFO), which activates IRE-binding activity of IRP1 by limiting de novo synthesis and repair of the iron sulfur cluster in IRP1. […] Recovery of aconitase activity was assessed in wild type and IRP2−/− cells.

[3] = tested on: ferric iron accumulation; experiment: Perls' DAB stain for ferric iron in cerebellar folia and striatum; format: in vivo, mice; conditions: cerebellar folia and striatum of IRP2−/− animals on Tempo1 diet
Method: as §1
Perl's DAB iron staining: After dewaxing and rehydrating, paraffin-embeded tissue sections were stained in prewarmed staining solution (5% potassium ferrocyanide 15.0 ml, 5% hydrochloric acid 15.0 ml, 15 sec in micro oven) for 5 min. The sections were rinsed with distilled water and Tris-buffered saline pH7.4, then were stained with DAB staining solution (20 mg DAB, 50 μl 30% H2O2, 20 ml Tris-buffered saline pH 7.4) for 30 min at room temperature. After rinsing with distilled water, the sections were mounted with Crystal Mount mounting solution (Sigma) and were observed and taken pictures with Nikon Eclipse E600 fluorescence microscope.
Cerebellar folia and striatum of wild type and IRP2−/− mice that were maintained on a control diet or on a Tempo1-supplemented diet were analyzed for ferric iron accumulation using Perls' DAB stain. […]

CC1(C)CC(O)CC(C)(C)N1[O] [Tempo1]
ferritin levels [1]: reduced | mitochondrial aconitase activity [2]: does not substantially affect | ferric iron staining [3]: decreased
